Consider nine compounds from US20170081338A1, “SUBSTITUTED HETEROARYL COMPOUNDS AND METHODS OF USE” (Sunshine Lake Pharma Co., Ltd., priority 2015, published 2017).

By pIC50 is commonly meant the negative decadic logarithm of the IC50, by convention in mol/L. As usually defined, the CLint scaled is the capacity of the preparation to metabolise the compound, expressed as a volume cleared per time. As a reminder, the AUC(0-t) is exposure summed from dosing to a finite time, without extrapolation to infinity.

One data set deals with T1, Aurora-A (h) (Homo sapiens, UniProt O14965).
T1 construct: purchased Millipore UK Ltd (contract assay service)
T1 sequence (O14965 1-403): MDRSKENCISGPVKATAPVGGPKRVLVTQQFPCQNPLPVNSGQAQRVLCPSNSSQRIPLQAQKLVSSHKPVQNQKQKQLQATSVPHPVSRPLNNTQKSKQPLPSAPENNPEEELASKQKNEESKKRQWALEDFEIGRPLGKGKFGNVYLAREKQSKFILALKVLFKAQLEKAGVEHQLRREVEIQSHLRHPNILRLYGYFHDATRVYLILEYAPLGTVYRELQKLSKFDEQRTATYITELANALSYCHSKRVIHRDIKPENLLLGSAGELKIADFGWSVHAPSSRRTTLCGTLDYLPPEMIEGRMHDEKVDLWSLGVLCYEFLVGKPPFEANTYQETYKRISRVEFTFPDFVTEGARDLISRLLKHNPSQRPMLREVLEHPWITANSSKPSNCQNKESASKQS
Kind of data set: Aurora-A (h) kinase assay. Format: biochemical. Here is the method:
The above assay procedure can be used to determine the IC50 for inhibition and/or the inhibition constant, Ki. The IC50 is defined as the concentration of compound required to reduce the enzyme activity by 50% under the condition of the assay. The IC50 value is estimated by preparing a 10 point curve using a 1/2 log dilution series (for example, a typical curve may be prepared using the following compound concentrations: 3 μM, 1 μM, 0.3 μM, 0.1 μM, 0.03 μM, 0.01 μM, 0.003 μM, 0.001 μM, 0.0003 μM and 0 μM).
Aurora-A (h) is incubated with 8 mM MOPS pH 7.0, 0.2 mM EDTA, 200 μM LRRASLG (Kemptide), 10 mM MgAcetate and [γ-^33P-ATP] (specific activity approx. 500 cpm/pmol, concentration as required). The reaction is initiated by the addition of the MgATP mix. After incubation for 40 minutes at room temperature, the reaction is stopped by the addition of 3% phosphoric acid solution. 10 μL of the reaction is then spotted onto a P30 filtermat and washed three times for 5 minutes in 75 mM phosphoric acid and once in methanol prior to drying and scintillation counting.
The kinase assays described herein were performed at Millipore UK Ltd, Dundee Technology Park, Dundee DD2 1SW, UK.

Data set [1] can be described thus: Compound stability in rat liver microsomes. The format is in vitro ADME. The following applies: pH 7.4; for half-life at 5 μM: rat liver microsomes 0.5 mg protein/mL, compound 5 μM, NADPH, 37° C., read-out: Rat T1/2; for CLint scaled at 5 μM: rat liver microsomes, in vivo CLint extrapolated. Here is the method:
(§1) Human or rat liver microsomes incubations were conducted in duplicate in polypropylene tubes. The typical incubation mixtures consisted of human or rat liver microsomes (0.5 mg protein/mL), compounds of interest (5 μM) and NADPH (1.0 mM) in a total volume of 200 μL potassium phosphate buffer (PBS, 100 mM, pH 7.4). Compounds were dissolved in DMSO and diluted with PBS such that the final concentration of DMSO was 0.05%. The enzymatic reactions were commenced with the addition of protein after a 3-min preincubation and incubated in a water bath open to the air at 37° C. Reactions were terminated at various time points (0, 5, 10, 15, 30, 60 min) by adding equal volume of ice-cold acetonitrile. The samples were stored at −80° C. until LC/MS/MS assays.
(§2) The concentrations of compounds in the incubation mixtures of human or rat liver microsomes were determined by a LC/MS/MS method. The ranges of the linearity in the concentration range were determined for each tested compounds.
(§3) A parallel incubation was performed using denatured microsomes as the negative control, and reactions were terminated at various time points (0, 15, 60 min) after incubation at 37° C.
(§4) Dextromethorphan (70 μM) was selected as the positive control, and reactions were terminated at various time points (0, 5, 10, 15, 30, 60 min) after incubation at 37° C. Both positive and negative control samples were included in each assay to ensure the integrity of the microsomal incubation system.
(§5) The concentrations of compounds in human or rat liver microsome incubations were plotted as a percentage of the relevant zero time point control for each reaction. The in vivo CLint were extrapolated (ref.: Naritomi, Y.; Terashita, S.; Kimura, S.; Suzuki, A.; Kagayama, A.; and Sugiyama, Y.; Prediction of human hepatic clearance from in vivo animal experiments and in vitro metabolic studies with liver microsomes from animals and humans. Drug Metab. Dispos., 2001, 29: 1316-1324).

A short description of data set [2]: Compound stability in human liver microsomes. Format: in vitro ADME. The following applies: pH 7.4; for half-life at 5 μM: human liver microsomes 0.5 mg protein/mL, compound 5 μM, NADPH, 37° C., read-out: Human T1/2; for CLint scaled at 5 μM: human liver microsomes, in vivo CLint extrapolated. Here is the method:
as §1, §2, §3, §4, §5

Data set [3] is described as follows: Pharmacokinetics after intravenous and oral administration in rats. The following applies: for Clearance (CL) after iv dosing / AUC(0-t) / half-life / Vd: dose 1 mg/kg, iv dosing; for F: oral bioavailability; for AUC(0-t) / half-life / Vd: rat, plasma; for Vd: read-out: Vss. The format is in vivo. Here is the method: The LC/MS/MS system used in the analysis consists of an Agilent 1200 Series vacuum degasser, binary pump, well-plate autosampler, thermostatted column compartment, the Agilent G6430 Triple Quadrupole Mass Spectrometer with an electrosprayionization (ESI) source. Quantitative analysis was carried out using MRM mode. The parameters for MRM transitions are in the Table A.
An Agilent XDB-C18, 2.1×30 mm, 3.5 μM column was used for the analysis. 5 μL of the samples were injected. Analysis condition: The mobile phase was 0.1% formic acid in water (A) and 0.1% formic acid in methanol (B). The flow rate was 0.4 mL/min. And the gradient of Mobile phase was in the Table B.
Alternatively, an Agilent 6330 series LC/MS/MS spectrometer equipped with G1312A binary pumps, a G1367A autosampler and a G1314C UV detector were used in the analysis. An ESI source was used on the LC/MS/MS spectrometer. The analysis was done in positive ion mode as appropriate and the MRM transition for each analyte was optimized using standard solution. A Capcell MP-C18 100×4.6 mm I.D., […] column (Phenomenex, Torrance, Calif., USA) was used during the analysis. The mobile phase was 5 mM ammonia acetate, 0.1% MeOH in water (A): 5 mM ammonia acetate, 0.1% MeOH in acetonitrile (B) (70/30, v/v). The flow rate was 0.6 mL/min. Column was maintained at ambient temperature. 20 μL of the samples were injected.
The compounds disclosed herein are assessed in pharmacokinetic studies in mice, rats, dogs or monkeys. The compounds are administered as a water solution, 2% HPMC+1% TWEEN®80 in water solution, 5% DMSO+5% solutol in saline, 4% MC suspension or capsule. For the intravenous administration, the animals are generally given at 0.5, 1 or 2 mg/kg dose. For the oral (p.o.) dosing, mice and rats are generally given 0.5, 1, 5 or 10 mg/kg dose, and dogs and monkeys are generally given 10 mg/kg dose. The blood samples (0.3 mL) are drawn at 0.25, 0.5, 1.0, 2.0, 3.0, 4.0, 6.0, 8.0, 12 and 24 h time points or 0.083, 0.25, 0.5, 1.0, 2.0, 4.0, 6.0, 8.0 and 24 h time points and centrifuged at 3,000 or 4000 rpm for 2 to 10 min. The plasma solutions are collected, and stored at −20° C. or −70° C. until analyzed by LC/MS/MS as described above.

pIC50: −log10 of the molar value.

As to `Cn1cc(Nc2ncc(Cl)c(N[C@H]3COC4C3OC[C@H]4NS(=O)(=O)CC(C)(C)C)n2)cn1` (stereo partly drawn) [Ex. 7, N-((3R,6S)-6-((5-chloro-2-((1-methyl-1H-pyrazol-4-yl)amino)pyrimidin-4-yl)amino)hexahydrofuro[3,2-b]furan-3-yl)-2,2-dimethylpropane-1-sulfonamide], at Aurora-A (h), the pIC50 was 5.93.
Regarding `Cn1cc(Nc2ncc(Cl)c(N[C@H]3COC4C3OC[C@H]4NS(=O)(=O)CC(F)(F)F)n2)cn1` (stereo partly drawn) [Ex. 5, N-((3R,6S)-6-((5-chloro-2-((1-methyl-1H-pyrazol-4-yl)amino)pyrimidin-4-yl)amino)hexahydrofuro[3,2-b]furan-3-yl)-2,2,2-trifluoroethanesulfonamide], in data set [1], the half-life at 5 μM was found to be 82.7 min and the CLint scaled at 5 μM is 30 mL/min/kg. The same compound had a pIC50 at Aurora-A (h) of 6.00. Besides, in data set [2], the half-life at 5 μM turned out to be 243 min and the CLint scaled at 5 μM is 7.16 mL/min/kg. Further, in data set [3], the “Clearance (CL) after iv dosing” value was 38.8 mL/min/kg, the F is recorded as 44.0%, the AUC(0-t) worked out at 420 ng·h/mL and the half-life was 108 min. Further, the Vd in data set [3] came to 2.01 L/kg.
On to `Cn1cc(Nc2ncc(Cl)c(N[C@H]3COC4C3OC[C@H]4NS(=O)(=O)N3CCCC3)n2)cn1` (stereo partly drawn) [Ex. 6, N-((3R,6S)-6-((5-chloro-2-((1-methyl-1H-pyrazol-4-yl)amino)pyrimidin-4-yl)amino)hexahydrofuro[3,2-b]furan-3-yl)pyrrolidine-1-sulfonamide], for which, in data set [1], the half-life at 5 μM worked out at 37.7 min and the intrinsic clearance (CLint scaled) at 5 μM was 65.8 mL/min/kg. Further, the pIC50 against Aurora-A (h) was 6.01. In addition, in data set [2], the half-life at 5 μM was found to be 37.3 min and the CLint scaled at 5 μM is 46.5 mL/min/kg. Besides, in data set [3], the “Clearance (CL) after iv dosing” value is 53.8 mL/min/kg, the F stood at 44.3%, the AUC(0-t) turned out to be 309 ng·h/mL and the half-life is 34.8 min. In data set [3], the Vd is 1.54 L/kg.
As to `Cn1cc(Nc2ncc(Cl)c(N[C@@H]3COC4C3OC[C@@H]4NS(=O)(=O)CC3CCOC3)n2)cn1` (stereo partly drawn) [Ex. 16, N-((3S,6R)-6-((5-chloro-2-((1-methyl-1H-pyrazol-4-yl)amino)pyrimidin-4-yl)amino)hexahydrofuro[3,2-b]furan-3-yl)-1-(tetrahydrofuran-3-yl)methanesulfonamide], in data set [1], the half-life at 5 μM is 106 min and the CLint scaled at 5 μM was 23.4 mL/min/kg. This compound also showed a pIC50 on Aurora-A (h) of 7.77. Also, in data set [2], the half-life at 5 μM is 39.1 min and the CLint scaled at 5 μM is 44.4 mL/min/kg.
In turn, `CC(C)CS(=O)(=O)N[C@H]1COC2C1OC[C@@H]2Nc1nc(Nc2cnn(C)c2)ncc1Cl` (stereo partly drawn) [Ex. 28, N-((3S,6S)-6-((5-chloro-2-((1-methyl-1H-pyrazol-4-yl)amino)pyrimidin-4-yl)amino)hexahydrofuro[3,2-b]furan-3-yl)-2-methylpropane-1-sulfonamide] gave a pIC50 against Aurora-A (h) of 6.24.
Turning to `Cn1cc(Nc2ncc(Cl)c(N[C@@H]3COC4C3OC[C@@H]4NS(=O)(=O)Cc3ccccc3)n2)cn1` (stereo partly drawn) [Ex. 19, N-((3S,6R)-6-((5-chloro-2-((1-methyl-1H-pyrazol-4-yl)amino)pyrimidin-4-yl)amino)hexahydrofuro[3,2-b]furan-3-yl)-1-phenylmethanesulfonamide], the pIC50 against Aurora-A (h) is 8.00. Further, in data set [3], the “Clearance (CL) after iv dosing” value came to 44.8 mL/min/kg, the F was 28.2%, the exposure AUC(0-t) came out at 374 ng·h/mL and the half-life is 52.8 min. Also, in data set [3], the Vd was found to be 2.37 L/kg.
With `Cn1cc(Nc2ncc(Cl)c(N[C@@H]3COC4C3OC[C@@H]4Nc3ccc(C#N)nn3)n2)cn1` (stereo partly drawn) [Ex. 3, 6-(((3S,6R)-6-((5-chloro-2-((1-methyl-1H-pyrazol-4-yl)amino)pyrimidin-4-yl)amino)hexahydrofuro[3,2-b]furan-3-yl)amino)pyridazine-3-carbonitrile], in data set [1], the half-life at 5 μM is 22 min and the CLint scaled at 5 μM was 113 mL/min/kg. Also, the pIC50 on Aurora-A (h) is 7.35. In data set [2], the half-life at 5 μM is 142 min and the CLint scaled at 5 μM is 12.3 mL/min/kg.
On Aurora-A (h), `Cn1cc(Nc2ncc(Cl)c(N[C@@H]3COC4C3OC[C@@H]4NS(=O)(=O)CC(F)F)n2)cn1` (stereo partly drawn) [Ex. 36, N-((3S,6R)-6-((5-chloro-2-((1-methyl-1H-pyrazol-4-yl)amino)pyrimidin-4-yl)amino)hexahydrofuro[3,2-b]furan-3-yl)-2,2-difluoroethanesulfonamide] gave a pIC50 of 7.29.
Still for that read-out and setting: with `CC(C)CS(=O)(=O)N[C@@H]1COC2C1OC[C@H]2Nc1nc(Nc2cnn(C)c2)ncc1Cl` (stereo partly drawn) [Ex. 32, N-((3R,6R)-6-((5-chloro-2-((1-methyl-1H-pyrazol-4-yl)amino)pyrimidin-4-yl)amino)hexahydrofuro[3,2-b]furan-3-yl)-2-methylpropane-1-sulfonamide] the figure was 6.32.
